Assay results published in patent publication US20250215013A1, “SUBSTITUTED TRICYCLIC COMPOUNDS AS PARP INHIBITORS AND THE USE THEREOF” (IMPACT THERAPEUTICS (SHANGHAI), INC., priority 2022, published 2025).

Legend:
[1] = molecular target: recombinant poly(ADP-ribose) polymerase 2 (PARP2); test: PARP2 chemiluminescent assay; assay type: biochemical; conditions: inhibition of PARP2 enzyme activity, chemiluminescence
MDA-MB-436 cells = test: Growth inhibition assay against BRCA mutant human breast cancer MDA-MB-436 cell line (CCK-8); assay type: cell-based; conditions: proliferation of MDA-MB-436 cells, 7 days
[2] = molecular target: recombinant poly(ADP-ribose) polymerase 1 (PARP1) (Homo sapiens (Human), UniProt P09874)
Chain of recombinant poly(ADP-ribose) polymerase 1 (PARP1) (P09874 whole entry): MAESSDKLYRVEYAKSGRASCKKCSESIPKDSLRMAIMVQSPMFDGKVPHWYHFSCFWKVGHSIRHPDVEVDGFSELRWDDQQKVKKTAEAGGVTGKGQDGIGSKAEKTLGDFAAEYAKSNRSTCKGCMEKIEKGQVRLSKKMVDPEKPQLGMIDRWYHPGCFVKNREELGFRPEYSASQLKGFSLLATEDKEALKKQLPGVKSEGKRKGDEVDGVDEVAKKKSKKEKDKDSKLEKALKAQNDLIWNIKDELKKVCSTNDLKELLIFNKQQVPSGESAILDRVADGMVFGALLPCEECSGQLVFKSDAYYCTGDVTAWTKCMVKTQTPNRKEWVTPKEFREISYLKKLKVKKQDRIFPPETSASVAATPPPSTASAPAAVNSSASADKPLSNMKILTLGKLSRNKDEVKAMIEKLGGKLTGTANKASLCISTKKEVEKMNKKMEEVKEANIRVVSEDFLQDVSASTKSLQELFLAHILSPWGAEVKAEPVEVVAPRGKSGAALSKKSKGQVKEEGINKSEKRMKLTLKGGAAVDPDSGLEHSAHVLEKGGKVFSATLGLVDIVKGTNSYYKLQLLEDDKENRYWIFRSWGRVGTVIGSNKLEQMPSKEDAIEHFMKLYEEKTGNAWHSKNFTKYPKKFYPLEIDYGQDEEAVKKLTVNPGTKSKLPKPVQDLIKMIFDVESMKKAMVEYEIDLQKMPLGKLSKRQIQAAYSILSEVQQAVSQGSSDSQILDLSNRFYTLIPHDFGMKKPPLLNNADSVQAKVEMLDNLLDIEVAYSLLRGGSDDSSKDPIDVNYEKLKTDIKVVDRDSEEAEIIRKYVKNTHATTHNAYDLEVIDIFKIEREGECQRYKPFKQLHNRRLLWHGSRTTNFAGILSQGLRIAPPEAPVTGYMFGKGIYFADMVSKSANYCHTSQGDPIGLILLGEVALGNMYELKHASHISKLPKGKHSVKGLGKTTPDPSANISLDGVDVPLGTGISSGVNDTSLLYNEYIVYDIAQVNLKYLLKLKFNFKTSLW

SMILES	IC50 [1] [nM]	IC50 (MDA-MB-436 cells; Homo sapiens, MDA-MB-436, […]) [nM]	IC50 [2] [nM]	IC50 (MDA-MB-436 cells) [nM]
CNC(=O)c1ccc(N2CCN(Cc3ccc4c(c3)[nH]c(=O)c3ncoc34)CC2)c(C)n1 [Example 12, 7-((4-(2-methyl-6-(methylcarbamoyl)pyridin-3-yl)piperazin-1-yl)methyl)oxazolo[4,5-c]quinolin-4(5H)-one]	6370	1.15	1.11	–
CNC(=O)c1ccc2c(n1)OC[C@H]1CN(Cc3ccc4c([nH]c(=O)c5c(C)cnn54)c3F)CCN21 [Example 167, (R)-6-fluoro-3-methyl-7-((8-methylcarbamoyl-1,2,4a,5-tetrahydropyrazino[1,2-d]pyrido[2,3-b][1,4]oxazin-3(4H)-yl)methyl)pyrazolo[1,5-a]quinoxalin-4(5H)-one]	397	18.7	0.33	–
CNC(=O)c1ccc(N2CCN(Cc3ccc4c(c3)[nH]c(=O)c3[nH]ccc34)CC2)c(F)n1 [Example 99, 7-((4-(2-fluoro-6-(methylcarbamoyl)pyridin-3-yl)piperazin-1-yl)methyl)-3,5-dihydro-4H-pyrrolo[2,3-c]quinolin-4-one]	> 10000	53.8	5.94	–
CCNC(=O)c1ccc(N2CCN(Cc3ccc4c([nH]c(=O)n5ccnc45)c3F)CC2)c(C)n1 [Example 63, 8-((4-(2-methyl-6-(ethylcarbamoyl)pyridin-3-yl)piperazin-1-yl)methyl)-7-fluoroimidazo[1,2-c]quinazolin-5(6H)-one]	> 10000	53.7	3.86	–
CNC(=O)c1ccc(N2CCN(Cc3ccc4c(c3)[nH]c(=O)c3[nH]ccc34)CC2)c(C)n1 [Example 10, 7-((4-(2-methyl-6-(methylcarbamoyl)pyridin-3-yl)piperazin-1-yl)methyl)-3,5-dihydro-4H-pyrrolo[2,3-c]quinolin-4-one]	> 10000	15.5	8.24	–
CNC(=O)c1ccc(N2CCN(Cc3ccc4c(c3)[nH]c(=O)c3cn(C)nc34)CC2)c(C)n1 [Example 9, 7-((4-(2-methyl-6-(methylcarbamoyl)pyridin-3-yl)piperazin-1-yl)methyl)-2-methyl-2,5-dihydro-4H-pyrazolo[4,3-c]quinolin-4-one]	3280	3.2	2.45	–
CNC(=O)c1ccc(N2CCN(Cc3ccc4c(c3)[nH]c(=O)c3c(C)noc34)CC2)c(C)n1 [Example 47, 7-((4-(2-methyl-6-(methylcarbamoyl)pyridin-3-yl)piperazin-1-yl)methyl)-3-methylisoxazolo[4,5-c]quinolin-4(5H)-one]	504	12.2	0.86	–
CNC(=O)c1ccc(N2CCN(Cc3ccc4c(c3)[nH]c(=O)c3nn(C)cc34)CC2)c(C)n1 [Example 69, 7-((4-(2-methyl-6-(methylcarbamoyl)pyridin-3-yl)piperazin-1-yl)methyl)-2-methyl-2,5-dihydro-4H-pyrazolo[3,4-c]quinolin-4-one]	5780	4.66	0.77	–
O=C(NC1CC1)c1ccc(N2CCN(Cc3ccc4c([nH]c(=O)n5ccnc45)c3F)CC2)c(F)n1 [Example 64, 8-((4-(2-fluoro-6-(cyclopropylcarbamoyl)pyridin-3-yl)piperazin-1-yl)methyl)-7-fluoroimidazo[1,2-c]quinazolin-5(6H)-one]	5450	52.6	2.73	–
CNC(=O)c1ccc(N2CCN(Cc3ccc4c(c3)[nH]c(=O)c3ccoc34)CC2)cn1 [Example 118, 7-((4-(6-(methylcarbamoyl)pyridin-3-yl)piperazin-1-yl)methyl)furo[3,2-c]quinolin-4(5H)-one]	273	1.56	0.53	–
CNC(=O)c1ccc(N2CCN(Cc3ccc4c(c3)[nH]c(=O)c3nc[nH]c34)CC2)c(C)n1 [Example 25, 7-((4-(2-methyl-6-(methylcarbamoyl)pyridin-3-yl)piperazin-1-yl)methyl)-1,5-dihydro-4H-imidazo[4,5-c]quinolin-4-one]	2490	61.8	3.39	–
CNC(=O)c1ccc(N2CCN(Cc3ccc4c(c3)[nH]c(=O)c3ocnc34)CC2)c(C)n1 [Example 14, 7-((4-(2-methyl-6-(methylcarbamoyl)pyridin-3-yl)piperazin-1-yl)methyl)oxazolo[5,4-c]quinolin-4(5H)-one]	> 10000	21.3	1.86	–

Other lines, results leading:

IC50 [1] [nM]	IC50 (MDA-MB-436 cells; Homo sapiens, MDA-MB-436, […]) [nM]	IC50 [2] [nM]	IC50 (MDA-MB-436 cells) [nM]	SMILES
431	0.78	0.24	–	[2H]C([2H])([2H])NC(=O)c1ccc(N2CCN(Cc3ccc4c([nH]c(=O)c5c(F)cnn54)c3F)CC2)c(F)n1 [Example 185, 7-((4-(2-fluoro-6-((methyl-d3)carbamoyl)pyridin-3-yl)piperazin-1-yl)methyl)-3,6-difluoropyrazolo[1,5-a]quinoxalin-4(5H)-one]
2420	> 100	4.43	–	CNC(=O)c1ccc(N2CCN(Cc3ccc4c(c3)[nH]c(=O)c3ncn(C)c34)CC2)c(C)n1 [Example 26, 7-((4-(2-methyl-6-(methylcarbamoyl)pyridin-3-yl)piperazin-1-yl)methyl)-1-methyl-1,5-dihydro-4H-imidazo[4,5-c]quinolin-4-one]
278	9.02	0.64	–	CNC(=O)c1ccc(N2CCN(Cc3ccc4c([nH]c(=O)c5cn[nH]c54)c3F)CC2)c(C)n1 [Example 45, 7-((4-(2-methyl-6-(methylcarbamoyl)pyridin-3-yl)piperazin-1-yl)methyl)-6-fluoro-1,5-dihydro-4H-pyrazolo[4,3-c]quinolin-4-one]
1390	0.79	0.28	–	CNC(=O)c1ccc(N2CCN(Cc3ccc4c([nH]c(=O)c5c(F)cnn54)c3F)CC2)c(Cl)n1 [Example 178, 7-((4-(2-chloro-6-(methylcarbamoyl)pyridin-3-yl)piperazin-1-yl)methyl)-3,6-difluoropyrazolo[1,5-a]quinoxalin-4(5H)-one]
3410	11.9	5.81	–	CNC(=O)c1ccc(N2CCN(Cc3cc4[nH]c(=O)c5cn(C)nc5c4cc3F)CC2)c(C)n1 [Example 89, 7-((4-(2-methyl-6-(methylcarbamoyl)pyridin-3-yl)piperazin-1-yl)methyl)-8-fluoro-2-methyl-2,5-dihydro-4H-pyrazolo[4,3-c]quinolin-4-one]
67.1	2.41	0.5	–	CNC(=O)c1ccc(N2CCN(Cc3cc4[nH]c(=O)c5c(F)cnn5c4cc3F)CC2)c(Cl)n1 [Example 184, 7-((4-(2-chloro-6-(methylcarbamoyl)pyridin-3-yl)piperazin-1-yl)methyl)-3,8-difluoropyrazolo[1,5-a]quinoxalin-4(5H)-one]
30.6	8.45	0.9	–	CNC(=O)c1ccc(N2CCN(Cc3ccc4c(c3)[nH]c(=O)c3c(F)c(C)nn34)CC2)c(C)n1 [Example 51, 7-((4-(2-methyl-6-(methylcarbamoyl)pyridin-3-yl)piperazin-1-yl)methyl)-3-fluoro-2-methylpyrazolo[1,5-a]quinoxalin-4(5H)-one]
636	11	3.3	–	CNC(=O)c1ccc(N2CCN(Cc3ccc4c(c3)[nH]c(=O)c3c4cnn3C)CC2)c(C)n1 [Example 71, 7-((4-(2-methyl-6-(methylcarbamoyl)pyridin-3-yl)piperazin-1-yl)methyl)-3-methyl-3,5-dihydro-4H-pyrazolo[3,4-c]quinolin-4-one]
1570	4.08	0.68	–	CNC(=O)c1ccc(N2CCN(Cc3ccc4c([nH]c(=O)c5cncn54)c3F)CC2)c(Cl)n1 [Example 56, 7-((4-(2-chloro-6-(methylcarbamoyl)pyridin-3-yl)piperazin-1-yl)methyl)-6-fluoroimidazo[1,5-a]quinoxalin-4(5H)-one]
487	32	5.85	–	CNC(=O)c1ccc(N2CCN(Cc3cc4[nH]c(=O)c5occc5c4cc3C)CC2)c(F)n1 [Example 104, 7-((4-(2-fluoro-6-(methylcarbamoyl)pyridin-3-yl)piperazin-1-yl)methyl)-8-methylfuro[2,3-c]quinolin-4(5H)-one]
931	1.04	1.77	–	CNC(=O)c1ccc(N2CCN(Cc3cc(F)c4c(c3)[nH]c(=O)n3cc(C)nc43)CC2)c(C)n1 [Example 136, 8-((4-(2-methyl-6-(methylcarbamoyl)pyridin-3-yl)piperazin-1-yl)methyl)-2-methyl-10-fluoroimidazo[1,2-c]quinazolin-5(6H)-one]
2060	19.4	2.42	–	CNC(=O)c1ccc(N2CCN(Cc3ccc4c(c3)[nH]c(=O)c3c4ncn3C)CC2)c(C)n1 [Example 28, 7-((4-(2-methyl-6-(methylcarbamoyl)pyridin-3-yl)piperazin-1-yl)methyl)-3-methyl-3,5-dihydro-4H-imidazo[4,5-c]quinolin-4-one]
1830	–	1.08	29	CNC(=O)c1ccc(N2CCN(Cc3ccc4c([nH]c(=O)n5nccc45)c3F)CC2)c(C)n1 [Example 72, 8-((4-(2-methyl-6-(methylcarbamoyl)pyridin-3-yl)piperazin-1-yl)methyl)-7-fluoropyrazolo[1,5-c]quinazolin-5(6H)-one]
266	6.85	2.16	–	CNC(=O)c1ccc(N2CCN(Cc3cc(F)c4c(c3)[nH]c(=O)n3cc(C)nc43)CC2)c(F)n1 [Example 137, 8-((4-(2-fluoro-6-(methylcarbamoyl)pyridin-3-yl)piperazin-1-yl)methyl)-2-methyl-10-fluoroimidazo[1,2-c]quinazolin-5(6H)-one]
17.9	1.11	0.16	–	CNC(=O)c1ccc(N2CCN(Cc3ccc4c([nH]c(=O)c5c(Cl)c(C)nn54)c3F)CC2)c(F)n1 [Example 199, 6-fluoro-7-((4-(2-fluoro-6-(methylcarbamoyl)pyridin-3-yl)piperazin-1-yl)methyl)-2-methyl-3-chloropyrazolo[1,5-a]quinoxalin-4(5H)-one]
